This experiment concerns the target A. viridans PO (Aerococcus viridans, UniProt A9X9K8). Description: A. viridans PO inhibitory activity assay (quinoneimine dye). In kind it is biochemical. The settings on record: read-out: KM(TPP). On the procedure: A. viridans PO and horseradish peroxidase were purchased from Sigma. A. viridans PO activity was determined by monitoring appearance of quinoneimine dye at 550 nm using a microplate reader (CLARIOstar) and conducted as described[5] with some modifications. […] The reaction buffer (50 mM KH2PO4 and 10 mM MgCl2, pH 5.9) contained TPP at specified concentrations, 10 μM flavin adenine dinucleotide, 0.15% 4-aminoantipyrine, 0.3% N-ethyl-N-(2-hydroxy-3-sulfopropyl)-m-toluidine (EHSPT), 50 μg/mL horseradish peroxidase, and 0.35 U/mL A. viridans PO. The reaction mixture was preincubated at 37 °C with inhibitor for 30 min, and then the reaction was initiated by adding pyruvate to a final concentration of 50 mM. To determine the IC50, TPP concentration was set at 60 μM with varying inhibitor concentrations. One unit of PO activity is defined as the production of 1 μmol of hydrogen peroxide per minute. The IC50 values were calculated from nonlinear regression curve fitting using GraphPad Prism.
Enzyme inhibitory activity assays – methods and results (Figures S1-4) […]
The compound […]
A. viridans PO inhibitory activity assay. A. viridans PO and horseradish peroxidase were purchased from Sigma. A. viridans PO activity was determined by monitoring appearance of quinoneimine dye at 550 nm using a microplate reader (CLARIOstar) and conducted as described3 with some modifications. […]
buffer (50 mM KH2PO4 and 10 mM MgCl2, pH 5.9) contained TPP at specified concentrations, 10 µM flavin adenine dinucleotide (FAD), 0.15% 4-aminoantipyrine, 0.3% N-ethyl-N-(2-hydroxy-3-sulfopropyl)-m-toluidine (EHSPT), 50 µg/mL horseradish peroxidase and 0.35 U/mL A. viridans PO. The reaction mixture was preincubated at 37 °C with inhibitor for 30 min, then reaction was initiated by adding pyruvate to a final concentration of 50 mM. To determine the IC50, TPP concentration was set was set at 60 µM with varying inhibitor concentrations. One unit of PO activity is defined as the production of 1 μmol of hydrogen peroxide per minute. The IC 50 values were calculated from non-linear regression curve fitting using GraphPad Prism. […]

A. viridans PO, sequence (A9X9K8 entry or part of it): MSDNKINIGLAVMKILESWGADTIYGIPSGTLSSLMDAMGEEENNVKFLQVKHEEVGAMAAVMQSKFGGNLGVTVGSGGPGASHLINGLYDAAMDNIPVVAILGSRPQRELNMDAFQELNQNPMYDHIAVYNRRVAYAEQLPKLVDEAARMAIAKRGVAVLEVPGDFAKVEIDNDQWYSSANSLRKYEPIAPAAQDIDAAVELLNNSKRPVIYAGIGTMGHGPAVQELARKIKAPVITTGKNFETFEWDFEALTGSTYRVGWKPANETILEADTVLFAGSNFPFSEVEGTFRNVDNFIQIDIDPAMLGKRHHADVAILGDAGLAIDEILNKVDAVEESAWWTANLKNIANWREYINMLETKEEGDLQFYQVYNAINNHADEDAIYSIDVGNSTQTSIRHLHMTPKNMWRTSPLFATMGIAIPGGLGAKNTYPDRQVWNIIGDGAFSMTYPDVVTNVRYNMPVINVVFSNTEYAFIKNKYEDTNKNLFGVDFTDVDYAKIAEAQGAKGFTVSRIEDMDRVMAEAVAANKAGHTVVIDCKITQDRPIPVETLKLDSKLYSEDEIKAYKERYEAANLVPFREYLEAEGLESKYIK

For the compound `Cc1ncc(C[n+]2csc(CCO[P@](=O)(O)OP(=O)(O)O)c2C)c(N)n1` [TPP, thiamine pyrophosphate], the Km is 5 µM.

Values taken from paper PMC11483378, “Triazole-Based Thiamine Analogues as Inhibitors of Thiamine Pyrophosphate-Dependent Enzymes: 1,3-Dicarboxylate for Metal Binding” (ACS Omega, 2024).
